Assay results taken from patent publication US6440903B1, “Substituted 2,4-diamino-1,3,5-triazines as herbicides” (Bayer Aktiengesellschaft, priority 1996, dated 2002).

Tests used:
Assay type in all cases: in vivo
[1] = tested on: Matricaria; assay: Pre-emergence test; details: greenhouse, 500 g of ai./ha, scored after three weeks
Procedure: (§1) Pre-emergence Test Solvent: 5 parts by weight of acetone Emulsifier: 1 part by weight of alkylaryl polyglycol ether To produce a suitable preparation of active compound, 1 part by weight of active compound is mixed with the stated amount of solvent, the stated amount of emulsifier is added and the concentrate is diluted with water to the desired concentration. Seeds of the test plants are sown in normal soil. After about 24 hours, the soil is watered with the preparation of active compound. The amount of water per unit area is advantageously kept constant. The concentration of active compound in the preparation is immaterial, only the application rate of active compound per unit area matters. After three weeks, the degree of damage to the plants is scored visually in % damage in comparison to the development of the untreated control. The figures denote: 0%=no effect (like untreated control) 100%=total destruction

[2] = tested on: Alopecurus; assay: Pre-emergence test; details: greenhouse, scored after three weeks
Procedure: as §1

[3] = tested on: Maize; assay: Pre-emergence test; details: greenhouse, scored after three weeks
Procedure: as §1

[4] = tested on: Echinochloa; assay: Pre-emergence test; details: greenhouse, scored after three weeks
Procedure: as §1

[5] = tested on: Digitaria; assay: Pre-emergence test; details: greenhouse, scored after three weeks
Procedure: as §1

[6] = tested on: Datura; assay: Pre-emergence test; details: greenhouse, 500 g of ai./ha, scored after three weeks
Procedure: as §1

[7] = tested on: Abutilon; assay: Pre-emergence test; details: greenhouse, scored after three weeks
Procedure: as §1

[8] = tested on: Amaranthus; assay: Pre-emergence test; details: greenhouse, 1000 g of ai./ha, scored after three weeks
Procedure: as §1

[9] = tested on: Sinapis; assay: Pre-emergence test; details: greenhouse, 1000 g of ai./ha, scored after three weeks
Procedure: as §1

[10] = tested on: Galium; assay: Pre-emergence test; details: greenhouse, 1000 g of ai./ha, scored after three weeks
Procedure: as §1

[11] = tested on: Setaria; assay: Pre-emergence test; details: greenhouse, scored after three weeks
Procedure: as §1

[12] = tested on: Veronica; assay: Pre-emergence test; details: greenhouse, scored after three weeks
Procedure: as §1

[13] = tested on: Solanum; assay: Pre-emergence test; details: greenhouse, scored after three weeks
Procedure: as §1

[14] = tested on: Wheat; assay: Pre-emergence test; details: greenhouse, scored after three weeks
Procedure: as §1

[15] = tested on: Polygonum; assay: Pre-emergence test; details: greenhouse, 500 g of ai./ha, scored after three weeks
Procedure: as §1

[16] = tested on: Cotton; assay: Pre-emergence test; details: greenhouse, scored after three weeks
Procedure: as §1

[17] = tested on: Maize; assay: Post-emergence test; details: greenhouse, scored after three weeks
Summary of the method: (§2)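 Plants 5-15 cm tall sprayed post-emergence with compound formulated in acetone/alkylaryl polyglycol ether emulsifier, diluted in water, applied at desired rates in 1000 l water/ha. Damage scored visually after three weeks as % versus untreated control (0% no effect, 100% total destruction).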

[18] = tested on: Viola; assay: Post-emergence test; details: greenhouse, scored after three weeks
Summary of the method: as §2

[19] = tested on: Wheat; assay: Post-emergence test; details: greenhouse, scored after three weeks
Summary of the method: as §2

[20] = tested on: Digitaria; assay: Post-emergence test; details: greenhouse, 125 g of ai./ha, scored after three weeks
Summary of the method: as §2

[21] = tested on: Setaria; assay: Post-emergence test; details: greenhouse, scored after three weeks
Summary of the method: as §2

[22] = tested on: Polygonum; assay: Post-emergence test; details: greenhouse, 125 g of ai./ha, scored after three weeks
Summary of the method: as §2

[23] = tested on: Chenopodium; assay: Post-emergence test; details: greenhouse, scored after three weeks
Summary of the method: as §2

[24] = tested on: Datura; assay: Post-emergence test; details: greenhouse, 125 g of ai./ha, scored after three weeks
Summary of the method: as §2

[25] = tested on: Amaranthus; assay: Post-emergence test; details: greenhouse, scored after three weeks; for pest or weed control at 1000 g/ha: Amaranthus, 504 h, read-out: % damage, Amaranthus
Summary of the method: as §2

[26] = tested on: Galium; assay: Post-emergence test; details: greenhouse, 1000 g of ai./ha, scored after three weeks
Summary of the method: as §2

[27] = tested on: Sinapis; assay: Post-emergence test; details: greenhouse, 1000 g of ai./ha, scored after three weeks
Summary of the method: as §2

[28] = tested on: Avena fatua; assay: Post-emergence test; details: greenhouse, 1000 g of ai./ha, scored after three weeks
Summary of the method: as §2

[29] = tested on: Xanthium; assay: Post-emergence test; details: greenhouse, 1000 g of ai./ha, scored after three weeks
Summary of the method: as §2

[30] = tested on: Abutilon; assay: Post-emergence test; details: greenhouse, 1000 g of ai./ha, scored after three weeks
Summary of the method: as §2

[31] = tested on: Stellaria; assay: Post-emergence test; details: greenhouse, 250 g of ai./ha, scored after three weeks
Summary of the method: as §2

[32] = tested on: Alopecurus; assay: Post-emergence test; details: greenhouse, 1000 g of ai./ha, scored after three weeks
Summary of the method: as §2

[33] = Setaria, 504 h, 1000 g of ai./ha, read-out: % damage, Setaria

CC(F)c1nc(N)nc(NC(C)c2ccc(Cl)cc2)n1 (stereo not shown) [drawing 93]
% damage, Matricaria [1]: 100% | % damage, Alopecurus ([2]; 500 g of ai./ha): 100% | % damage, Maize ([3]; 500 g of ai./ha): 0% | % damage, Echinochloa ([4]; 500 g of ai./ha): 100% | % damage, Digitaria ([5]; 500 g of ai./ha): 100% | % damage, Datura [6]: 100% | % damage, Abutilon ([7]; 500 g of ai./ha): 100%

CC(F)c1nc(N)nc(NC(C)c2ccc(Cl)cc2)n1 (stereo not shown) [drawing 94]
% damage, Amaranthus [8]: 100% | % damage, Maize ([3]; 1000 g of ai./ha): 0% | % damage, Sinapis [9]: 100% | % damage, Abutilon ([7]; 1000 g of ai./ha): 100%

CC(Nc1nc(N)nc(C(C)(C)F)n1)c1ccc(Cl)cc1 (stereo not shown) [drawing 95]
% damage, Amaranthus [8]: 90% | % damage, Maize ([3]; 1000 g of ai./ha): 0% | % damage, Sinapis [9]: 100% | % damage, Abutilon ([7]; 1000 g of ai./ha): 80%

CC(Nc1nc(N)nc(C(C)(C)F)n1)c1ccc(Cl)cc1 (stereo not shown) [drawing 96]
% damage, Amaranthus [8]: 100% | % damage, Alopecurus ([2]; 1000 g of ai./ha): 100% | % damage, Galium [10]: 100% | % damage, Maize ([3]; 1000 g of ai./ha): 20% | % damage, Sinapis [9]: 100% | % damage, Setaria ([11]; 1000 g of ai./ha): 100% | % damage, Abutilon ([7]; 1000 g of ai./ha): 100%

CC(Nc1nc(N)nc(C(Cl)Cl)n1)c1ccc(Cl)cc1 (stereo not shown) [drawing 98]
% damage, Veronica ([12]; 500 g of ai./ha): 100% | % damage, Solanum ([13]; 500 g of ai./ha): 100% | % damage, Wheat ([14]; 500 g of ai./ha): 0% | % damage, Echinochloa ([4]; 500 g of ai./ha): 100% | % damage, Digitaria ([5]; 500 g of ai./ha): 95% | % damage, Polygonum [15]: 100% | % damage, Cotton ([16]; 500 g of ai./ha): 0%

CC(Nc1nc(N)nc(C(C)(Cl)Cl)n1)c1ccc(Cl)cc1 (stereo not shown) [drawing 99]
% damage, Veronica ([12]; 1000 g of ai./ha): 100% | % damage, Amaranthus [8]: 100% | % damage, Solanum ([13]; 1000 g of ai./ha): 100% | % damage, Wheat ([14]; 1000 g of ai./ha): 0% | % damage, Echinochloa ([4]; 1000 g of ai./ha): 95% | % damage, Digitaria ([5]; 1000 g of ai./ha): 100% | % damage, Cotton ([16]; 1000 g of ai./ha): 0%

CC(Cl)c1nc(N)nc(NC(C)c2ccc(Cl)cc2)n1 (stereo not shown) [drawing 100]
% damage, Veronica ([12]; 500 g of ai./ha): 100% | % damage, Solanum ([13]; 500 g of ai./ha): 100% | % damage, Wheat ([14]; 500 g of ai./ha): 0% | % damage, Echinochloa ([4]; 500 g of ai./ha): 100% | % damage, Setaria ([11]; 500 g of ai./ha): 95% | % damage, Polygonum [15]: 100% | % damage, Cotton ([16]; 500 g of ai./ha): 0%

CC(F)c1nc(N)nc(NC(C)c2ccc(Cl)cc2)n1 (stereo not shown) [drawing 104]
% damage, Maize ([17]; 125 g of ai./ha): 10% | % damage, Viola ([18]; 125 g of ai./ha): 100% | plant injury at 125 g/ha ([19]; Triticum aestivum, 504 h, 125 g of ai./ha, read-out: % damage, Wheat): 0% | % damage, Digitaria [20]: 80% | % damage, Setaria ([21]; 125 g of ai./ha): 90% | % damage, Polygonum [22]: 100% | % damage, Chenopodium ([23]; 125 g of ai./ha): 100% | % damage, Datura [24]: 100%

CC(F)c1nc(N)nc(NC(C)c2ccc(Cl)cc2)n1 (stereo not shown) [drawing 105]
% damage, Maize ([17]; 125 g of ai./ha): 20% | pest or weed control at 125 g/ha ([18]; 504 h, 125 g of ai./ha, read-out: % damage, Viola): 100% | pest or weed control at 125 g/ha ([21]; Setaria, 504 h, 125 g of ai./ha, read-out: % damage, Setaria): 80% | pest or weed control at 125 g/ha ([22]; Polygonum, 504 h, read-out: % damage, Polygonum): 100% | pest or weed control at 125 g/ha ([23]; Chenopodium, 504 h, 125 g of ai./ha, read-out: % damage, Chenopodium): 100% | % damage, Datura [24]: 100%

CC(Nc1nc(N)nc(C(F)(F)F)n1)c1ccc(Cl)cc1 (stereo not shown) [drawing 111]
% damage, Amaranthus ([25]; 1000 g of ai./ha): 100% | % damage, Galium [26]: 100% | % damage, Sinapis [27]: 100% | % damage, Avena fatua [28]: 70% | % damage, Xanthium [29]: 100% | % damage, Setaria ([21]; 1000 g of ai./ha): 100% | % damage, Abutilon [30]: 100%

CC(Nc1nc(N)nc(C(C)(C)F)n1)c1ccc(Cl)cc1 (stereo not shown) [drawing 112]
% damage, Amaranthus ([25]; 1000 g of ai./ha): 100% | % damage, Galium [26]: 100% | % damage, Sinapis [27]: 100% | % damage, Avena fatua [28]: 100% | % damage, Xanthium [29]: 100% | % damage, Setaria ([21]; 1000 g of ai./ha): 100% | % damage, Abutilon [30]: 100%

CCC(Nc1nc(N)nc(C(F)(F)F)n1)c1ccc(Cl)cc1 (stereo not shown) [drawing 142]
% damage, Amaranthus ([25]; 250 g of ai./ha): 100% | % damage, Stellaria [31]: 100% | % damage, Viola ([18]; 250 g of ai./ha): 100% | % damage, Wheat ([19]; 250 g of ai./ha): 10% | % damage, Setaria ([21]; 250 g of ai./ha): 100% | % damage, Chenopodium ([23]; 250 g of ai./ha): 100%

CCC(Nc1nc(NC(C)=O)nc(C(F)(F)F)n1)c1ccc(Cl)cc1 (stereo not shown) [drawing 144]
pest or weed control at 1000 g/ha ([25]; 1000 g of ai./ha): 100% | % damage, Maize ([17]; 1000 g of ai./ha): 10% | % damage, Xanthium [29]: 90% | pest or weed control at 1000 g/ha [21, 33]: 100% | % damage, Abutilon [30]: 100%

COc1ccc(C(C)Nc2nc(NC(C)=O)nc(C(F)(F)F)n2)cc1 (stereo not shown) [drawing 149]
pest or weed control at 1000 g/ha ([25]; 1000 g of ai./ha): 100% | % damage, Alopecurus [32]: 100% | % damage, Galium [26]: 100% | % damage, Xanthium [29]: 100% | pest or weed control at 1000 g/ha [21, 33]: 100% | % damage, Abutilon [30]: 100%
